Data on two compounds can be found in article PMC6525019 (Cell chemical biology, 2019).

As a reminder, the Ki is the equilibrium dissociation constant of an inhibitor or competing ligand from its target. A high value points to a looser hold on the target. Usually Kd stands for the equilibrium constant for the complex coming apart. What is called stoichiometry N is the number of molecules, sites or subunits per partner or assembly.

Test [1] addresses T1, RibBX (Acinetobacter baumannii, UniProt V5V8R9).
T1 sequence (V5V8R9 1-373): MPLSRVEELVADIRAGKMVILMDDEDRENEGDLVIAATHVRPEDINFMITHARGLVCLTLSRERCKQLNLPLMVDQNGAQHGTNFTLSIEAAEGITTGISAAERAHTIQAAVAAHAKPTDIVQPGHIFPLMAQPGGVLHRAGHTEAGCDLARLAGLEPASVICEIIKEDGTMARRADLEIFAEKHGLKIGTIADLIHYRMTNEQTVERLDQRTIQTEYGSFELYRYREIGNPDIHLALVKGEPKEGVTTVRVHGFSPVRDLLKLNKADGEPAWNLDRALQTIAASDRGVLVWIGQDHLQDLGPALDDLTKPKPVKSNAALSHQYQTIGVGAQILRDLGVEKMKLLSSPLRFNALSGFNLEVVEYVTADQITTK
Nature of the test: colorimetric DHBPS assay. Type of test: biochemical.

For test [2], the target named is T1, RibBX. Briefly: isothermal titration calorimetry. Type of test: binding.
The target of test [3] is A. baumannii RibBX (3,4-dihydroxy-2-butanone 4-phosphate synthase (DHBPS; RibB) fusion protein) (Acinetobacter baumannii ATCC 17978). Briefly: SEC.
Test [4] shares this target. Briefly: crystal structure.

For the compound `Cc1cc2nc3c(=O)[nH]c(=O)nc-3n(C[C@H](O)[C@H](O)[C@H](O)COP(=O)(O)O)c2cc1C` [FMN], the Ki on RibBX [1] came out at 7.8 µM. In addition, on RibBX [2], the Kd is 714 nM.

On to “A. baumannii RibBX (3,4-dihydroxy-2-butanone 4-phosphate synthase (DHBPS; RibB) fusion protein) (enzyme)”, for which the results for the stoichiometry N in test [3] and in test [4] were 2 and 4, respectively.
